Reference: article PMC10975980, “Open Meter Duo: Low-Cost Instrument for Fluorimetric Determination of Cholinesterase Activity” (Sensors (Basel, Switzerland), 2024)

Target: T1, acetylcholinesterase from Electrophorus electricus (AChE, EC 3.1.1.7, type V-S) (Electrophorus electricus, UniProt O42275)
T1 construct: commercial native electric eel enzyme, type V-S (Merck), crude enzyme protein dissolved in PBS with BSA as stabilizer
Assay: fluorimetric indoxyl acetate assay (Open Meter Duo)
Assay type: biochemical
Description: fluorimetric indoxyl acetate assay (Open Meter Duo) on acetylcholinesterase from Electrophorus electricus (AChE, EC 3.1.1.7, type V-S)

T1 sequence (O42275 24-633): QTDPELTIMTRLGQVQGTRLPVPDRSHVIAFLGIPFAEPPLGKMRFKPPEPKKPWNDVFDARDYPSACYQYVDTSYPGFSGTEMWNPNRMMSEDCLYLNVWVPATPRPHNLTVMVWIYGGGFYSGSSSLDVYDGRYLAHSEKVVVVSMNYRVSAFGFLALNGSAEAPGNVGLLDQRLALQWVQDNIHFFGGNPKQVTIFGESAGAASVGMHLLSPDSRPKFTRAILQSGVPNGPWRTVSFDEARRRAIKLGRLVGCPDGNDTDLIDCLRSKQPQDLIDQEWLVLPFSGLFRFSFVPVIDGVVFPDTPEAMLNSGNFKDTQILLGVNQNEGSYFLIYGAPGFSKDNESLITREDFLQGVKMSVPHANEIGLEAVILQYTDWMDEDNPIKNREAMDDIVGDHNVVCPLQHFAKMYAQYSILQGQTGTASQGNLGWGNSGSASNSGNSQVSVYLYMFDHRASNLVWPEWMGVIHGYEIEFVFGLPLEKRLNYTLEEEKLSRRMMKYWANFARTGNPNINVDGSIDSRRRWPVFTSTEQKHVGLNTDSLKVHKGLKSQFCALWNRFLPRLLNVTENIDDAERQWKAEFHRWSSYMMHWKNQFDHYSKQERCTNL

**Q.** With CNC(=O)Oc1cccc2c1OC(C)(C)C2 [Carbofuran] as the compound, how does the IC50 read?
**A.** The IC50 was 84.3 nM.
